Results: patent US12371748B2, “Genetic markers for predicting responsiveness to therapy with HDL-raising or HDL mimicking agent” (Hoffmann-La Roche Inc., priority 2014, dated 2025)

Tested on: patients recently hospitalized for an Acute Coronary Syndrome (ACS)
Test: dal-OUTCOMES pharmacogenomic study: cardiovascular events by ADCY9 genotype (Cox proportional hazards)
Format: in vivo, human
Design: key to Responsiveness to treatment: NR = non-responsive; PR = partially responsive; R = responsive
Conditions: for Hazard ratio (dal vs placebo): time to events; for HR, dal-OUTCOMES: per copy of minor allele
Protocol: Dal-OUTCOMES trial (NC20971) was a double blind, randomized, placebo-controlled, parallel group, multi-center, phase III study to assess the safety and efficacy of the CETP inhibitor dalcetrapib in patients recently hospitalized for an Acute Coronary Syndrome (ACS). At time of the interim analysis the study included 15871 randomized patients, distributed over two treatment arms: placebo (7933 patients) and dalcetrapib (600 mg daily; 7938 patients). […] The dal-OUTCOMES study details can be found in G. Schwartz et al., N. Engl. J. Med. 367; 22, 2012.
dal-Outcomes patients were recruited 4 to 12 weeks following hospitalization for acute coronary syndrome characterized by elevated cardiac biomarkers, with symptoms of acute myocardial ischemia, ischemic electrocardiographic abnormalities that were new or presumed to be new, or loss of viable myocardium on imaging. Patients without elevated cardiac biomarkers were eligible to participate if symptoms of acute myocardial ischemia were accompanied by electrocardiographic changes that were new or presumed to be new and by additional evidence of obstructive coronary disease. (Schwartz G G et al. Am Heart J 2009; 158:896-901 e3).
All patients were following individualized programs to target LDL cholesterol levels of 100 mg per deciliter (2.6 mmol per liter) or lower by statin if tolerated and diet. No specific statin agent was specified, and patients were not excluded based on LDL cholesterol values. Patients with serum triglyceride levels of 400 mg per deciliter (4.5 mmol per liter) or higher were excluded. (Schwartz G G et al. N Engl J Med 2012; 367:2089-99) Eligible participants to the dal-Outcomes trial entered a single-blind placebo run-in period of approximately 4 to 6 weeks to allow for patients to stabilise and for completion of planned revascularisation procedures. At the end of the run-in period, eligible patients in stable condition were randomised in a 1:1 ratio to 600 mg of dalcetrapib or placebo on top of evidence-based medical care for acute coronary syndrome. Cardiovascular events were adjudicated by an independent clinical endpoint committee. For the pharmacogenomics study, 6338 patients were recruited from April 2008 through July 2010 at 461 sites in 14 countries and provided written informed consent to participate to the genetic study of the dal-OUTCOMES trial. DNA was extracted from whole blood. Following genomic data cleanup, samples from 5749 Caucasian patients were used for the discovery genome-wide association study (GWAS).
The Illumina Infinium HumanOmni2.5Exome-8v1_A BeadChip including 2,567,845 genetic variants (Illumina, San Diego, California) was used for the discovery GWAS of 5749 Caucasian participants to the dal-OUTCOMES study. The chromosome 16 region including 5 genes upstream and downstream of the adenylate cyclase type 9 (ADCY9) gene (CHR16: 3,400,000-4,600,000) was imputed using IMPUTE2, providing 17,764 variants for analysis with an average completion rate of 99.76%. A Sequenom panel was used for the confirmation of imputed single nucleotide polymorphisms (SNPs) in the ADCY9 gene identified in dal-OUTCOMES and were tested in the dal-PLAQUE-2 study, including 20 SNPs with P values<0.05 from the discovery GWAS.
Genome-wide association study (GWAS)—Genome-wide genotyping was performed using 200 ng of genomic DNA in GLP-environment at the Beaulieu-Saucier Pharmacogenomics Centre (Montreal, Canada). The Illumina Infinium HumanOmni2.5Exome-8v1_A BeadChip (Illumina, San Diego, CA) including 2,567,845 genomic markers was used and processed according to the manufacturer's specifications. This chip includes over 200,000 exome variants identified through the Exome Chip Consortium. The remaining BeadChip content is a mix of rare and common SNPs from the 1000 Genome Project designed to be maximally informative for diverse world populations. Each BeadChip was scanned and analyzed using the Illumina iScan Reader. […]

For CCC(CC)CC1(C(=O)Nc2ccccc2SC(=O)C(C)C)CCCCC1 [dalcetrapib, thioisobutyric acid S-(2-{[1-(2-ethyl-butyl)-cyclohexanecarbonyl]-amino}-phenyl) ester], the Responsiveness to treatment (rs8061182 CC) was “NR”, the “Hazard ratio (dal vs placebo)” value (rs8061182 CC) was 1.52 and the Responsiveness to treatment (rs8061182 CT) was “PR”. The “Hazard ratio (dal vs placebo)” value (rs8061182 CT) was 0.99, the Responsiveness to treatment (rs8061182 TT) was “R” and the “Hazard ratio (dal vs placebo)” value (rs8061182 TT) was 0.815. For the same compound, the “HR, dal-OUTCOMES” value (rs11647778, Cox additive genetic model) was 0.678, the Responsiveness to treatment (rs11647778 CC) was “R” and the “Hazard ratio (dal vs placebo)” value (rs11647778 CC) was 0.691. The Responsiveness to treatment (rs11647778 CG) was “PR”, the “Hazard ratio (dal vs placebo)” value (rs11647778 CG) was 0.966 and the Responsiveness to treatment (rs11647778 GG) was “NR”. For the same compound, the “Hazard ratio (dal vs placebo)” value (rs11647778 GG) was 1.300, the “HR, dal-OUTCOMES” value (rs11647828, Cox additive genetic model) was 0.696 and the Responsiveness to treatment (rs11647828 CC) was “R”. For the same compound, the “Hazard ratio (dal vs placebo)” value (rs11647828 CC) was 0.647, the Responsiveness to treatment (rs11647828 CT) was “PR” and the “Hazard ratio (dal vs placebo)” value (rs11647828 CT) was 0.963. The Responsiveness to treatment (rs11647828 TT) was “NR”, the “Hazard ratio (dal vs placebo)” value (rs11647828 TT) was 1.315 and the “HR, dal-OUTCOMES” value (rs12595857, Cox additive genetic model) was 0.677. For the same compound, the Responsiveness to treatment (rs12595857 AA) was “NR”, the “Hazard ratio (dal vs placebo)” value (rs12595857 AA) was 1.255 and the Responsiveness to treatment (rs12595857 AG) was “PR”. The “Hazard ratio (dal vs placebo)” value (rs12595857 AG) was 0.954, the Responsiveness to treatment (rs12595857 GG) was “R” and the “Hazard ratio (dal vs placebo)” value (rs12595857 GG) was 0.719. The “HR, dal-OUTCOMES” value (rs12599911, Cox additive genetic model) was 0.674, the Responsiveness to treatment (rs12599911 GG) was “R” and the “Hazard ratio (dal vs placebo)” value (rs12599911 GG) was 0.672. The Responsiveness to treatment (rs12599911 GT) was “PR”, the “Hazard ratio (dal vs placebo)” value (rs12599911 GT) was 0.982 and the Responsiveness to treatment (rs12599911 TT) was “NR”. The “Hazard ratio (dal vs placebo)” value (rs12599911 TT) was 1.244, the “HR, dal-OUTCOMES” value (rs12920508, Cox additive genetic model) was 0.669 and the Responsiveness to treatment (rs12920508 CC) was “NR”. For the same compound, the “Hazard ratio (dal vs placebo)” value (rs12920508 CC) was 1.205, the Responsiveness to treatment (rs12920508 CG) was “PR” and the “Hazard ratio (dal vs placebo)” value (rs12920508 CG) was 0.946. For the same compound, the Responsiveness to treatment (rs12920508 GG) was “R”, the “Hazard ratio (dal vs placebo)” value (rs12920508 GG) was 0.676 and the “HR, dal-OUTCOMES” value (rs12935810, Cox additive genetic model) was 1.377. The Responsiveness to treatment (rs12935810 AA) was “NR”, the “Hazard ratio (dal vs placebo)” value (rs12935810 AA) was 1.260 and the Responsiveness to treatment (rs12935810 AG) was “NR”. The “Hazard ratio (dal vs placebo)” value (rs12935810 AG) was 1.043, the Responsiveness to treatment (rs12935810 GG) was “R” and the “Hazard ratio (dal vs placebo)” value (rs12935810 GG) was 0.796. The “HR, dal-OUTCOMES” value (rs13337675, Cox additive genetic model) was 0.834, the Responsiveness to treatment (rs13337675 AA) was “NR” and the “Hazard ratio (dal vs placebo)” value (rs13337675 AA) was 1.070. The Responsiveness to treatment (rs13337675 AG) was “PR”, the “Hazard ratio (dal vs placebo)” value (rs13337675 AG) was 0.904 and the Responsiveness to treatment (rs13337675 GG) was “PR”. For the same compound, the “Hazard ratio (dal vs placebo)” value (rs13337675 GG) was 1.034, the “HR, dal-OUTCOMES” value (rs17136707, Cox additive genetic model) was 0.594 and the Responsiveness to treatment (rs17136707 CC) was “R”. The “Hazard ratio (dal vs placebo)” value (rs17136707 CC) was 0.552, the Responsiveness to treatment (rs17136707 CT) was “PR” and the “Hazard ratio (dal vs placebo)” value (rs17136707 CT) was 0.835. The Responsiveness to treatment (rs17136707 TT) was “NR”, the “Hazard ratio (dal vs placebo)” value (rs17136707 TT) was 1.058 and the “HR, dal-OUTCOMES” value (rs74702385, Cox additive genetic model) was 0.599. The Responsiveness to treatment (rs74702385 CC) was “NR”, the “Hazard ratio (dal vs placebo)” value (rs74702385 CC) was 1.053 and the Responsiveness to treatment (rs74702385 CT) was “R”. For the same compound, the “Hazard ratio (dal vs placebo)” value (rs74702385 CT) was 0.854, the Responsiveness to treatment (rs74702385 TT) was “R” and the “Hazard ratio (dal vs placebo)” value (rs74702385 TT) was 0.348. For the same compound, the “HR, dal-OUTCOMES” value (rs111590482, Cox additive genetic model) was 0.606, the Responsiveness to treatment (rs111590482 CC) was “R” and the “Hazard ratio (dal vs placebo)” value (rs111590482 CC) was 0.333. For the same compound, the Responsiveness to treatment (rs111590482 CT) was “R”, the “Hazard ratio (dal vs placebo)” value (rs111590482 CT) was 0.856 and the Responsiveness to treatment (rs111590482 TT) was “NR”. The “Hazard ratio (dal vs placebo)” value (rs111590482 TT) was 1.054, the “event rate in the primary efficacy endpoint, dalcetrapib arm compared to placebo arm” value (whole study population, 600 mg daily, interim analysis) was “no evidence of reduction of the event rate” and the “HR for cardiovascular events, AA compared to reference GG homozygotes at rs1967309” value (within dalcetrapib arm) was 0.40. For the same compound, the “HR for cardiovascular events, AG compared to reference GG homozygotes at rs1967309” value (within dalcetrapib arm) was 0.68.
